One block for each compound: values may come before it. Where a SMILES comes first, the peptide text is derived from it. Bridges are numbered along the chain shown (N, C = ends). Where no end group is shown, it is not given here. [ ]: non-standard residue; d: D form. The star is where a group is joined. hArg = N=C(N)NCCCC[C@H](N)C(=O)O; Myristoyl = CCCCCCCCCCCCCC(=O)*; Mpa = O=C(O)CCS
Assays:
human platelets [1] = assay: Human platelet granule (ATP) secretion (lumiaggregometer); assay type: cell-based; conditions: for integrin-dependent second wave of ATP/granule secretion induced by U46619 / integrin-independent first wave of ATP/granule secretion induced by U46619: human platelets (Integrilin: mouse and human platelets); for ATP secretion induced by thrombin: washed human platelets pretreated with peptide
Experimental: (§1) For human subjects, Institutional Review Board approval was obtained from the University of Illinois at Chicago, and informed consent from volunteers was obtained in accordance with the Declaration of Helsinki. Platelets were prepared as previously described (33). Platelet aggregation and adenosine triphosphate (ATP) secretion were measured simultaneously in a lumiaggregometer (Chronolog) at 37° C. with stirring (1000 rpm), as previously described (34).
(§2) To prepare platelet-rich plasma (PRP), whole blood was anticoagulated with 3.8% trisodium citrate. To prepare human platelets, one-seventh volume of ACD was used as anticoagulant. Platelets were washed twice and resuspended in modified Tyrode's buffer as previously described (27). Platelet aggregation and adenosine triphosphate (ATP) secretion were measured simultaneously in a lumiaggregometer (Chronolog) at 37° C. with stirring (1000 rpm) as previously described (28).

[2] = Acute maximal tolerated dose (MTD) in mice; conditions: mouse, in vivo, 60 mg/kg; CD-1 mice, IV tail vein, single injection, observed 8 days; read-out: maximal tolerated dose (MTD) = maximal feasible dose
Sprague-Dawley (SD) rats = assay: Toxicity of bolus and continuous intravenous infusion in rats; assay type: in vivo; conditions: IV bolus 100 mg/kg followed by IV infusion 25 mg/kg/hr for 24 hr
Experimental: (§3) Toxicological responses to bolus and continuous intravenous infusion of M3mP6 HLPN were performed using jugular vein catheterized (JVC) Sprague-Dawley (SD) rats (6-8 weeks old and […]), which were quarantined for at least 3 day after arrival. Four SD rats (n=2 per sex) was given an IV bolus dose of M3mP6 (100 mg/kg, dose volume 10 mL/kg) followed by IV infusion dose of M3mP6 for 24 hr (25 mg/kg/hr for a total dose of 600 mg/kg/day). […] A pilot 7-day continuous infusion study in rats was performed similarly with lower drug concentrations. The parameters observed include mortality, clinical signs, body weights, hematology, clinical chemistry and organ weights. For pharmacokinetic studies, plasma samples for drug analysis were obtained from blood samples collected in satellite 6 males and 6 females (3 rat/sex per time-point) in the dose Groups 3 and 4 (Phase 2) at the following time-point on Day 1 after the bolus dose and infusion were started: 5, 10 and 30 minutes, and 1, 2, 6 and 24 hours. Additional blood samples were collected prior to the end of 5-day infusion, immediately after stopping the infusion, and at 30 minutes, and 1, 4, 6, 24 and 48 hours after the end of the infusion.

Pharmacokinetics in mice = assay type: in vivo, mouse; conditions: intravenous injection of 5 mg/kg (5 μmol/kg)
Experimental: For pharmacokinetic studies, CD-1 mice were intravenously injected with 5 mg/kg (5 μmol/kg) M3mP6 (potential therapeutic dose). At the following time points: 0 (pre-dose) min, 5 min, 10 min, 30 min, 1, 2, 4, 6, and 24 hours, 3 drug-treated mice were sacrificed, and their blood drawn via vena cava into K2EDTA tubes. Whole blood and plasma were analyzed for M3mP6 concentrations using Agilent 1290 Infinity LC and 6430 triple quadrupole mass spectrometer and MassHunter software.

[3] = Pharmacokinetics in rats (5-day infusion); design: species or system rat; conditions: Sprague-Dawley, in vivo
Experimental: as §3

C57BL/6 mice [4] = assay: Tail bleeding time; conditions: cangrelor 30 μg/kg; for tail bleeding, drugs injected after initiation of thrombosis: M3mP6 10 μmol/kg; for tail bleeding time vs normal control: M3mP6 HLPN 10 μmol/kg, aspirin 4.3 mg/kg, clopidogrel 4 mg/kg, ticagrelor 3 mg/kg, MB2mP6
C57BL/6 mice [5] = assay: FeCl3-induced mouse carotid artery thrombosis model; assay type: in vivo; conditions: for formation of stable occlusive thrombus / occlusion time vs normal control: 7.5% FeCl3, M3mP6 HLPN 5 or 10 μmol/kg retro-orbital 15 min before, aspirin 4.3 mg/kg oral 2 h, clopidogrel 4 mg/kg oral 2 h, MB2mP6 15 min before; for anti-thrombotic effect compared with M3mP6 HLPN (10 μmol/kg), pre-injury dosing: clopidogrel 4 mg/kg, ticagrelor 3 mg/kg, aspirin 4.3 mg/kg oral, cangrelor 30 μg/kg retro-orbital, MB2mP6
Experimental: The right carotid artery was isolated (34, 37). A MA-0.5SB nanoprobe (Transonic Systems, Ithaca, NY) was hooked to the carotid artery to monitor blood flow with a TS420 flowmeter (Transonic Systems) as previously described (38). After stabilization, carotid arterial thrombosis was induced with 7.5% ferric chloride (FeCl3) (Sigma Aldrich, St. Louis, MO), a filter paper disc (2 mm diameter) soaked with 1.2 μL of 7.5% FeCl3 was placed on top of the artery for 3 minutes, and then removed. M3mP6 HLPN, HLPN of scrambled control peptide, HLPN of a second control peptide carrying AAA mutation or physiological saline solution were injected 15 minutes before procedure retro-orbitally. […] To study the effect of post-injury drug injection on thrombosis development, the filter paper disc soaked with 1.2 μl 3.75% FeCl3 were placed on artery for 2 minutes, and drugs were injected retro-orbitally 3 minutes after removing the filter paper. Blood flow was monitored continuously until 5 minutes after occlusion or for 30 minutes if no occlusion occurred. Time to occlusion was defined as the time between the removal of the filter paper and stable occlusion (no blood flow for 2 minutes).
Eight- to 10-week-old C57BL/6 mice (20-25 g body weight) were anesthetized by isoflurane inhalation. The right carotid artery was isolated. A MA-0.5SB nanoprobe (Transonic Systems, Ithaca, NY) was hooked to the carotid artery to monitor blood flow with a TS420 flowmeter (Transonic Systems) as previously described (29). After stabilization, a filter paper disc (2 mm diameter) soaked with 1.2 μL of 7.5% FeCl3 (Sigma Aldrich, St. Louis, MO) was placed on top of the carotid artery for 3 minutes to induce thrombosis and then removed. MB2mP6 or scrambled control peptide were injected 15 minutes before the procedure retro-orbitally. Blood flow was monitored continuously until 5 minutes after occlusion or for 15 minutes if no occlusion occurred. Time to occlusion was defined as the time between the removal of the filter paper and stable occlusion (no blood flow for 5 minutes).

C57BL/6 mice [6] = assay: Laser-induced mouse cremaster arteriolar thrombosis and intravital microscopy; assay type: in vivo; conditions: M3mP6 HLPN 10 μmol/kg, cangrelor 30 μg/kg
Experimental: Laser-induced thrombosis and intravital microscopy are performed as previously described using male C57BL/6 mice (6-8 weeks old) anesthetized by intraperitoneal injection of ketamine and xylazine (36). Platelet thrombi were indicated by infusion of DyLight 649-labeled anti-mouse […], Germany). Fibrin deposition was tracked by Alexa Fluor (AF) 488-labeled monoclonal anti-fibrin antibody (clone 59D8) as previously described (25). Suspensions of M3mP6 HLPN (10 μmol/kg) or a control peptide (Myr-ERAFEE (SEQ ID NO: 47)) HLPN in 0.15 M NaCl or cangrelor were injected 15 min or immediately prior to induction of injury. Fluorescence and bright-field images were recorded by an Olympus BX61W microscope with a 603/1.0 NA water immersion objective and a high-speed camera (5 frame/second) through an intensifier at 27-30 injury sites in 7 mice per group. The movies shown are compressed to 100 frame/second.

C57BL/6 mice [7] = assay: Arterial perforation bleeding analysis (carotid artery perforation model of surgical bleeding); assay type: in vivo, mouse; conditions: M3mP6 HLPN 10 μmol/kg; cangrelor loading dose 30 μg/kg
Experimental: The right carotid artery was isolated as previously described (34, 37) and punctured with a 27½G needle in the middle of carotid artery. The perforating wound was immediately covered with a 4×4 mm hemostatic pad (CERTI-GAUZE™, Kansas City, MO), which serve to absorb extravascular blood and also help stop bleeding similarly to that during vascular procedures. The pad was removed after 15 minutes regardless whether bleeding continued or not. The volume of blood absorbed on the pad during the 15-minute period was quantified by estimating the amount of hemoglobin. To do so, adsorbed blood on the pad was dissolved into 30 mL double distilled water. To 1 mL of dissolved blood, 1 mL of the 2× Drabkin's Solution was added. After fully mixing and incubating for 20 minutes at room temperature, the absorbance of the samples was analyzed at 540 nm wave length with a spectrophotometer. Known volumes of blood were similarly analyzed to establish a standard curve for the calculation of blood volume on the pad. Data were analyzed by Mann-Whitney test for statistical significance.

human platelets [8] = assay: Human platelet aggregation (lumiaggregometer); assay type: cell-based; conditions: washed human platelets pretreated with peptide
Experimental: as §1, §2

[9] = Peptide loading, peptide concentration and dissolution of the nanoparticle/micelle formulation; assay type: physicochemical; conditions: HLPN, or lipid micellar suspension for mP6
Text: The peptide myr-FEEERL(SEQ ID NO: 25) was modified from the original […] cytoplasmic domain sequence to make it more suitable to form peptide-based nanoparticle, and was formulated to form lipid-stabilized high-loading peptide nanoparticles together with PEG2000-DSPE (Avanti Polar Lipids Inc. Alabaster, AL), L-α-phosphatidylcholine (egg PC, Type XI-E, Sigma-Aldrich, St. Louis, MO) with a peptide to PEG-DSPE to PC molar ratio of 36.8:51.7:11.5 or 50:40:10 (further improved formulation with identical in vivo effect) using thin-film rehydration (21, 31). The size distribution of nanoparticles were determined using dynamic light scattering (DLS) (Malvern, Zetasizer Nano ZS90, Worcestershire, U.K.) as previously described (32). This method uses light scattering to monitor the Brownian motion of the particles. Particle size is presented as volume weighted diameter distribution.

[10] = reference (21); cited from earlier work

Compound: N=C(N)NCCCC[C@@H]1NC(=O)CCSSC[C@@H](C(N)=O)NC(=O)[C@@H]2CCCN2C(=O)[C@H](Cc2c[nH]c3ccccc23)NC(=O)[C@H](CC(=O)O)NC(=O)CNC1=O [Integrilin, reference compound] ([Mpa][hArg]GDWPC-NH2; disulfide 1-7)
integrin-dependent second wave of ATP/granule secretion induced by U46619 (human platelets [1]): diminished
integrin-independent first wave of ATP/granule secretion induced by U46619 (human platelets [1]): significantly enhanced
platelet granule secretion, low dose thrombin, integrin antagonist-treated platelets (human platelets [1]; wild type mouse or human platelets): enhanced

Compound: CCCCCCCCCCCCCC(=O)N[C@@H](Cc1ccccc1)C(=O)N[C@@H](CCC(=O)O)C(=O)N[C@@H](CCC(=O)O)C(=O)N[C@@H](CCC(=O)O)C(=O)N[C@@H](CCCNC(=N)N)C(=O)N[C@@H](CC(C)C)C(=O)O [M3mP6, Myr-FEEERL] (Myristoyl-FEEERL-OH; C-terminus assumed)
MTD at 8 days [2]: 60 mg/kg
toxicity during 3-4 days post dose (single dose MTD) (Sprague-Dawley (SD) rats): no toxicity was observed
half-life (Pharmacokinetics in mice; CD-1, mouse, in vivo, read-out: t1/2−λz (converted)): 2.46 h
maximum level in whole blood (Pharmacokinetics in mice): 33.36 ng/mL
half-life ([3]; female, rat, iv): 3.7 h
half-life ([3]; male, rat 5-day infusion study, read-out: t1/2−λz (half-life after cessation of infusion), male (converted)): 3.1 h
tail bleeding, drugs injected after initiation of thrombosis (C57BL/6 mice [4]): but not M3mP6 caused significant bleeding

Compound: CC(=O)Oc1ccccc1C(=O)O [aspirin]
formation of stable occlusive thrombus / occlusion time vs normal control (C57BL/6 mice [5]): not significantly different
occlusive thrombus formation, high dose aspirin experiment (C57BL/6 mice [5]; aspirin 36 mg/kg i.p. 1 hour prior, M3mP6 HLPN 5 μmol/kg, combination): no significant effect

bleeding from perforated artery vs control mice (C57BL/6 mice [7]): caused excessive bleeding
tail bleeding, drugs injected after initiation of thrombosis (C57BL/6 mice [4]): caused significant bleeding
tail bleeding time vs normal control (C57BL/6 mice [4]): dramatically increased
Compound: CSCCNc1nc(SCCC(F)(F)F)nc2c1ncn2[C@@H]1O[C@H](COP(=O)(O)OP(=O)(O)C(Cl)(Cl)P(=O)(O)O)[C@@H](O)[C@H]1O [cangrelor]
anti-thrombotic effect compared with M3mP6 (10 μmol/kg), drugs injected after initiation of thrombosis (C57BL/6 mice [5]; 3.75% FeCl3, cangrelor 30 μg/kg): no statistical difference
anti-thrombotic effect compared with M3mP6 HLPN (10 μmol/kg), pre-injury dosing (C57BL/6 mice [5]): moderately but significantly better
intravascular fibrin clot formation at the site of vascular injury (C57BL/6 mice [6]): moderate effect
platelet thrombus formation (C57BL/6 mice [6]; preinjected): completely inhibiting

Compound: COC(=O)[C@H](c1ccccc1Cl)N1CCc2sccc2C1 [clopidogrel]
formation of stable occlusive thrombus / occlusion time vs normal control (C57BL/6 mice [5]): moderate but significant delay
anti-thrombotic effect compared with M3mP6 HLPN (10 μmol/kg), pre-injury dosing (C57BL/6 mice [5]): significantly less effective

tail bleeding time vs normal control (C57BL/6 mice [4]): dramatically prolonged
Compound: CCCSc1nc(N[C@@H]2C[C@H]2c2ccc(F)c(F)c2)c2nnn([C@@H]3C[C@H](OCCO)[C@@H](O)[C@H]3O)c2n1 [ticagrelor]

Compound: myr-EEERA (Myristoyl-EEERA) [mP5]
thrombin-induced platelet aggregation (human platelets [8]): partially inhibited
integrin-dependent second wave of ATP/granule secretion induced by U46619 (human platelets [1]): reduced
integrin-independent first wave of ATP/granule secretion induced by U46619 (human platelets [1]): significantly enhanced
ATP secretion induced by thrombin (human platelets [1]): enhanced

Compound: myr-FEEERA (Myristoyl-FEEERA) [mP6]
peptide concentration in injectable/micellar suspension [9]: 1 mM
peptide loading, of total molar content (mol/mol) [9]: < 4%
thrombin-induced platelet aggregation (human platelets [8]): potently inhibited
integrin-dependent second wave of ATP/granule secretion induced by U46619 (human platelets [1]): diminished
integrin-independent first wave of ATP/granule secretion induced by U46619 (human platelets [1]): diminished
ATP secretion induced by thrombin (human platelets [1]): significantly inhibited
maximal concentration of peptide in lipid micellar formulation [10]: < 1 mM
maximal peptide content of lipid micellar formulation (mol/mol) [10]: ≤ 4%

Source: US12714678B2, “Peptides and methods of treating sepsis, atherosclerosis, thrombosis, stroke, heart attack and inflammation” (THE BOARD OF TRUSTEES OF THE UNIVERSITY OF ILLINOIS, priority 2019, dated 2026)
